{
  "source": "patent US12357608B2",
  "about": "“Methods and compositions utilizing RRx-001 combination therapy for radioprotection” (priority 2018, dated 2025)",
  "key": {"superoxide dismutase": {"tested_on": "superoxide dismutase", "test": "Superoxide dismutase activity assay in hMSC", "format": "cell-based, human", "conditions": "5 mM RRx-001 16 hours; 8 hours after 10 Gy irradiation", "protocol": "The activity of superoxide dismutase activity was also assayed in hMSC. hMSC were treated for 16 hours with […] RRx-001 or vehicle, irradiated at 10 Gy or sham-irradiated and whole cell homogenate collected according to the manufacture's protocol. The assay measures the activity of all three forms of SOD. The amount of SOD activity (U/mL) was normalized to protein levels."}, "CD2F1 male mice": {"tested_on": "CD2F1 male mice", "test": "Survival following lethal total body irradiation (TBI)", "format": "in vivo", "protocol": "In this Example, the effects of systemic administration of RRx-001 on survival in response to a lethal dose of radiation was assayed in mice. CD2F1 male mice 9.5-11 weeks old were administered a single dose of RRx-001 by intraperitoneal (IP) injection 24 hours prior to a lethal radiation dose. 24 mice received 10 mg/kg RRx-001 (formulated in 5% DMSO in sterile H2O) and 24 mice received the vehicle control (5% DMSO) in sterile H2O only).\nThe mice were subjected to total body irradiation (TBI) with 9.35 Gy (LD70/30) at 0.6 Gy/min using High-level Cobalt-60. Unanesthetized mice were placed in well-ventilated Plexiglas restrainers and irradiated bilaterally. Sham-irradiated mice were also placed in identical Plexiglas restrainers and kept in a room shielded from irradiation at the same time. In each experiment, the dose to the abdominal cores of the animals was delivered at a dose rate of approximately 0.6 Gy/min. Dosimetry was performed prior to the irradiation of the animals using the highly accurate alanine/electron spin resonance (ESR) dosimetry system (American Society for Testing and Materials, Standard E 1607) to measure dose rates (to water) in the cores of acrylic mouse phantoms, which were located in the compartments of the exposure rack. A calibration curve based on standard alanine calibration dosimeters provided by the National Institute of Standards and Technology (NIST, Gaithersburg, MD) was used to measure the doses. The accuracy of the dose rate calibrations has been verified several times using the services of the National Physics Laboratory (UK National Standards Laboratory, London, UK) and the M.D. Anderson Cancer Center (Houston, TX). The corrections applied to the measured dose rates in the phantoms were for a small difference in the Co-60 energy between the mass energy-absorption coefficients for soft tissue and water, as well as source decay. The radiation field was uniform within ±1.2%.\nMice were monitored at least twice a day for 30 days post-irradiation. During the critical period (days 10-20), mice were monitored at least three times a day with no more than 10 hours between observations. Mice displaying any signs of discomfort received food in their cage as a wet mash. Mice displaying overt dyspnea, weight loss, lethargy, or other markers of moribundity and appearing to be in distress were humanely euthanized in a separate room using carbon dioxide gas followed by cervical dislocation after breathing stopped as a confirmatory method of euthanasia. This experiment was repeated for a total of n=24 mice per group.\nSurvival curves were estimated using the Kaplan-Meier method and were compared using a two-sided log-rank test at the 0.05 significance level. P-values were considered statistically significant if less than 0.05."}},
  "data": [
    {"smiles": "O=C(CBr)N1CC([N+](=O)[O-])([N+](=O)[O-])C1", "note": "[RRx-001, 2-bromo-1-(3,3-dinitroazetidin-1-yl)ethan-1-one]", "values": [
      {"measurement": "Superoxide Dismutase Activity", "setting": "superoxide dismutase", "value": "did not increase"},
      {"measurement": "increase in mean survival time compared to the vehicle control", "setting": "CD2F1 male mice; 10 mg/kg 24 hours prior to lethal TBI", "value": 7, "unit": "days"},
      {"measurement": "increase in survival", "setting": "CD2F1 male mice; 10 mg/kg 24 hours prior to lethal TBI, vs vehicle control", "value": 33.4, "unit": "%"},
      {"measurement": "survival times, means±standard errors", "setting": "CD2F1 male mice; 10 mg/kg IP 24 hours prior to 9.35 Gy TBI, 30-day observation, N=24/group", "value": "27.2 ± 1.1", "unit": "days"},
      {"measurement": "reduction in the 30-day death risk", "setting": "CD2F1 male mice; one dose 10 mg/kg IP 24 hours prior to 9.35 Gy (LD70/30) TBI, vs vehicle control irradiated mice", "value": "~33.4", "unit": "%"}
    ]}
  ]
}
